Target: PDE9A (Homo sapiens (Human), UniProt O76083)
Assay: PDE9A inhibition, fluorescence polarization assay (IMAP-FP screening express kit)
Format: biochemical
Conditions: Fl-cGMP substrate 100 nM, PDE9A 5 ng/ml, 1 hour at room temperature
Method: The inhibitory activity of the representative compounds according to the present invention against phosphodiesterase 9A was tested based on the polarization assay (IMAP-FP screening express kit) provided by MDS (MDS Analytical Technologies, Sunyvale, CA, USA). As a buffer solution, a reaction solution (a reaction solution containing 0.01% Tween 20 provided by MDS was diluted 5 times, then 5 mM DTT is added) and a polarization detection solution (binding solution A and B provided by MDS were mixed at a ratio of 3:1 and IMAP binding reagent 1/600 was added) were prepared. 100 μM of the substrate (Fl-cGMP substrate; MDS) and 3.6 μg/ml of the enzyme PDE9A (ab54113; abcam) were prepared. 3.6 μg/ml PDE9A and 100 μM substrate were diluted to 20 ng/ml (final reaction concentration: 5 ng/ml) and 400 nM (final reaction concentration: 100 nM), respectively. The buffer solution used for all dilution and preparation processes was 1× reaction solution with 1 mM DTT added, and the polarization detection solution was used to induce polarization at the end.
The prepared samples were dispensed on black microplates (Multiwell 384 well plates, #3573, Corning Life Sciences, Lowell, MA, USA) using a 16-channel pipette (multi 16-channel, Finnpipette, Thermo Scientific, Essex, UK). The total reaction volume per well is 20 μl. At this time, 10 μl of 2% DMSO, 5 μl of substrate solution, and 5 μl of reaction solution were used as a negative control, and 10 μl of 2% DMSO, 5 μl of substrate solution, and 5 μl of PDE9A solution were used as a positive control. As the experimental group, 10 μl of the compound prepared in Example, 5 μl of the substrate solution, and 5 μl of the PDE9A solution were used. After pretreatment between the compound and the enzyme was performed for about 10 minutes before the enzyme-substrate reaction, 5 μl of cGMP was added to induce the enzyme reaction. During the reaction, each compound, enzyme, and substrate occupied 50%, 25%, and 25% of the total volume, respectively, and they were prepared at high concentrations of 2, 4, and 4 times, respectively, immediately before addition. After the enzymatic reaction, it was shaken lightly for 1 minute and the enzyme reaction was induced at room temperature for 1 hour. Then, 60 μl of a polarization detection solution prepared in advance was added to induce polarization.
Nanoparticles composed of trivalent metal ions are mixed in the fluorescence detection solution, which combines with phosphoric acid expose by enzymatic reaction to increase the molecular weight and induce polarization. After leaving for 2 hours at room temperature, the polarization (Fluorescence Polarization, FP) value was measured using a multilabel counter (Envision, PerkinElmer, Turku, Finland) (emission wavelength: P-535 nm, S-535 nm, excitation wavelength: 480 nm), and the result was expressed as an IC50 value, which is the concentration of the compound that inhibited PDE9A by 50% in vitro (Table 2).

Sequence of PDE9A (O76083 whole entry): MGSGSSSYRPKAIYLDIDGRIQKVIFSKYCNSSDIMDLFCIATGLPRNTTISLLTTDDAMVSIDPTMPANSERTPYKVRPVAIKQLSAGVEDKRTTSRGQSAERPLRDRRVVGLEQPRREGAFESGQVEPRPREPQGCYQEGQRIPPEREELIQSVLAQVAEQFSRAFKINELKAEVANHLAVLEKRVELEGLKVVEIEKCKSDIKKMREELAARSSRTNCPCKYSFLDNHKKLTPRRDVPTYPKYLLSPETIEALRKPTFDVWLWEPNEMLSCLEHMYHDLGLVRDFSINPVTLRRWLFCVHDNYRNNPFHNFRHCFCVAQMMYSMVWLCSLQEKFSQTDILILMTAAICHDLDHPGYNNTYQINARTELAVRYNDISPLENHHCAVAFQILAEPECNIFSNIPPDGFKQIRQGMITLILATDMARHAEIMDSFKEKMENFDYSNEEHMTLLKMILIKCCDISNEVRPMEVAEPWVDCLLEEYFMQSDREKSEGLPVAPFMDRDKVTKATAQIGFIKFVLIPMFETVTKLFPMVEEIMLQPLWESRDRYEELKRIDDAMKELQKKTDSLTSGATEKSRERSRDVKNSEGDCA

IC50 | Structure (SMILES)
10 nM | Cc1cc(C)c2oc(CSc3nc4c(cnn4C4CCOCC4)c(=O)[nH]3)nc2c1 [Example 55, 6-(((5,7-dimethylbenzo[d]oxazol-2-yl)methyl)thio)-1-(tetrahydro-2H-pyran-4-yl)-1,5-dihydro-4H-pyrazolo[3,4-d]pyrimidin-4-one]
3 nM | COc1ccc2nc(CSc3nc4c(cnn4C4CCOCC4)c(=O)[nH]3)oc2c1 [Example 56, 6-(((6-methoxybenzo[d]oxazol-2-yl)methyl)thio)-1-(tetrahydro-2H-pyran-4-yl)-1,5-dihydro-4H-pyrazolo[3,4-d]pyrimidin-4-one]
